Consider 13 molecules from patent US4594345A, “Methylflavone-8-carboxylates” (Nippon Shinyaku Co. Ltd., priority 1982, dated 1986).

The test system of one data set is carrageenin edema. Kind of data set: Carrageenin edema in hind foot of rat (anti-inflammatory action). Type of data set: in vivo, rat (SD strain). The arrangement: concentration or dose not given beside the values. To be noted: rats, oral one hour prior to carrageenin; foot volume three hours after. On the procedure:
Anti-inflammatory action was evaluated by measuring the effect of the compounds (I) in inhibiting carrageenin edema as illustrated below.
Carrageenin edema in hind foot of rat.
SD strain rats of about 150 grams body weight were used; each group consisted of five rats. Thus, 0.1 ml of 0.5% carrageenin solution in physiological saline water was hypodermically injected to the right hind foot of rat. The test compound was given orally to rats one hour prior to the above carrageenin treatment. Then the volume of the foot before and three hours after the carrageenin treatment was measured and the difference was compared with that of the control group.
A general note: In the carrageenan paw model, swelling and tenderness develop within hours.

The test system of a further data set is SRS-A. Briefly: Anti-SRS-A action (SRS-A induced shrinkage of guinea pig ileus). Also noted: species or system guinea pig (Hartley strain male). To be noted: treated five minutes before SRS-A (20 units), 5 min; for SRS-A Inhibition Ratio % 10^-6 M: 1 µM; for SRS-A Inhibition Ratio % 10^-7 M: 0.1 µM. On the procedure:
(§1) The effect of the compounds (I) of the present invention in the treatment of asthma and allergic diseases were evaluated by a passive cutaneous anaphylaxis assay (PCA) in rats and by measuring anti-SRS-A action using ileus of guinea pigs.
Anti-SRS-A action (An anti-action against slow reacting substance of anaphylaxie)
Hartley strain male guinea pigs (300 to 350 grams body weight) are killed and 1.0 to 1.5 cm of ileus is immediately excised from ileocecal parts and is suspended in 10 ml of Tyrode solution (95% O2 -5% CO2 saturation) containing 10^-7 g/ml of atropine and 10^-6 g/ml of pyrilamine. SRS-A (20 units) (the amount of SRS-A showing the same shrinkage as 5 ng of histamine is defined as one unit) prepared by using sensitized guinea pig lung is given to cause shrinkage there. Then antagonistic action of test compounds treated five minutes ago against the shrinkage is measured and recorded via isotonic transducer. [formula] in which A' is a height of shrinkage of SRS-A + test compound and A is that of SRS-A.

In data set [1] the test system is passive cutaneous anaphylaxis (PCA). Briefly: Passive cutaneous anaphylaxis assay (PCA) in rats. Type of data set: in vivo, rat (Wister strain). The note with it: Rattus norvegicus, po, 1 h, oral 10 mg/kg, one hour before antigen, read-out: PCA Inhibition Ratio %. On the procedure:
as §1
(i) Antiserum abundant in homocytotropic antibody is prepared by the same method as Tada and Okumura did (cf. Journal of Immunology, volume 106, page 1002, […]). Thus, one mg (calculated as an amount of protein) of DNP-As (2,4-dinitrophenyl-coupled ascaris extract) prepared by methods of Strejan and Campbell (Journal of Immunology, volume 98, page 893, 1971) and of Eisen (Journal of American Chemical Society, volume 85, page 4593, 1953) and […] pertussis vaccine are administered to each paw of Wister strain rats (180 to 200 grams body weights) by dividing the dose by four. Five days later, 0.5 mg of DNP-As is adminstered into muscle of back. Eight days later from the initial immunization, blood is taken from descending aorta under anesthetizing with ether, the resulting serum is stored at -80° C. and is melted before use.
(ii) Effect of tested compounds is investigated as follows:
Anti-serum obtained by the method (i) is diluted with physiological saline solution double by double successively and 0.05 ml of each diluted solution is administered into back of Wister strain rats (140 to 160 grams body weight) subcutaneously. After 72 hours, a solution of 2 mg (calculated as protein) of DNP-As and 2.5 mg of Evand Blue dissolved in 1 ml of physiological saline solution is administered intravenously at a dose of 5 ml/kg. After thirty minutes from antigen solution administration, the animals are killed and diameters of blue spots appeared at the place where antiserum is administered are measured. The PCA test is conducted by the same method as already described using a diluted solutions of antiserum which always show 10 mm or more of spot diameters and the effect of the test compounds is judged. Thus, antiserum diluted solutions are administered to two places in back. Test compounds are administered orally at the dose of 10 mg/kg one hour before administration of antigen solution. From the skin of reacted parts of killed animals, leaked or emitted dyestuff is extracted [cf. Baeck and Steinetz: J. Pharmacol. Exp. Ther., Vol. 131, page 400 (1961)] and the amount of the dyestuff is measured. The inhibition ratio is calculated by the following expression: [formula] in which R' is an amount of dyestuff in the group treated with the test compounds and A is that in the control group.

Another data set has as its system male mice. Kind of data set: Acute toxicity, oral, observed for two weeks. Type of data set: in vivo. The note with it: oral 4000 mg/kg, dead/total. The protocol: Acute toxicity is observed for two weeks by oral adminsitration of 4000 mg/kg of the test compounds to male mice. One group consists of four mice. Numbers of dead mice are shown in numerators.
The test system of a further data set is allergic asthma. The note with it: cited from earlier work.
For another data set, the system named is mast cells. The note with it: believed; cited from earlier work.

With `CCOc1ccccc1-c1oc2c(C(=O)OCCO)cccc2c(=O)c1C` [Example 4, Beta-Hydroxyethyl 2'-ethoxy-3-methylflavone 8-carboxylate], the “% Inhibition (carrageenin edema)” value with carrageenin edema is 33.9%. In the data set with SRS-A, the “SRS-A Inhibition Ratio % 10^-6 M” value stood at 67.2% and the “SRS-A Inhibition Ratio % 10^-7 M” value is recorded as 42.4%. Further, in data set [1], the inhibition in vivo at 10 mg/kg amounted to 20.5%. Also, the “Lethal Ratio” value in the data set with male mice was 0/4.

As for `CCOC(=O)c1cccc2c(=O)c(C)c(-c3ccccc3OC)oc12` [Example 11, ethyl 2'-methoxy-3-methylflavone-8-carboxylate], in the data set with SRS-A, the “SRS-A Inhibition Ratio % 10^-6 M” value came out at 100% and the “SRS-A Inhibition Ratio % 10^-7 M” value was 35.1%. In addition, in data set [1], the inhibition in vivo at 10 mg/kg turned out to be 16.3%. In the data set with male mice, the “Lethal Ratio” value is on record as 0/4.

Regarding `CCNC(=O)c1cccc2c(=O)c(C)c(-c3ccccc3OC)oc12` [Example 13, 2'-methoxy-3-methylflavone-8-carboxylic acid acid N-ethylamide], in the data set with SRS-A, the “SRS-A Inhibition Ratio % 10^-6 M” value was determined as 45.2% and the “SRS-A Inhibition Ratio % 10^-7 M” value is recorded as 37.4%. In addition, the inhibition in vivo at 10 mg/kg in data set [1] was determined as 23%. Further, the “Lethal Ratio” value in the data set with male mice is reported as 1/4.

Take `CCOc1ccccc1-c1oc2c(C(=O)N(CC)CC)cccc2c(=O)c1C` [Example 18, 2'-ethoxy-3-methylflavone-8-carboxylic acid N,N-diethylamide]: in the data set with SRS-A, the “SRS-A Inhibition Ratio % 10^-6 M” value is reported as 57.1% and the “SRS-A Inhibition Ratio % 10^-7 M” value was found to be 32.1%. Also, in data set [1], the inhibition in vivo at 10 mg/kg was 27.4%. The “Lethal Ratio” value in the data set on male mice was 0/4.

Take `Cc1c(-c2ccccc2OC(C)C)oc2c(C(=O)O)cccc2c1=O` [Example 20, 2'-isopropoxy-3-methylflavone-8-carboxylic acid]: the “% Inhibition (carrageenin edema)” value in the data set with carrageenin edema was 32.5%. In the data set on SRS-A, the “SRS-A Inhibition Ratio % 10^-6 M” value worked out at 38.5% and the “SRS-A Inhibition Ratio % 10^-7 M” value is 20.4%. The inhibition in vivo at 10 mg/kg in data set [1] is 20.7%.

Regarding `CCN(CC)C(=O)c1cccc2c(=O)c(C)c(-c3ccccc3C)oc12` [Example 35, 2',3-dimethylflavone-8-carboxylic acid N,N-diethylamide], the “% Inhibition (carrageenin edema)” value with carrageenin edema is reported as 13.0%. Further, in the data set on SRS-A, the “SRS-A Inhibition Ratio % 10^-6 M” value worked out at 48.8% and the “SRS-A Inhibition Ratio % 10^-7 M” value stood at 18.0%. For the same molecule, in data set [1], the inhibition in vivo at 10 mg/kg worked out at 13.3%.

Take `CCN(CC)C(=O)c1cccc2c(=O)c(C)c(-c3ccc(C(C)C)cc3)oc12` [Example 48, 4'-isopropyl-3-methylflavone-8-carboxylic acid N,N-diethylamide]: the “% Inhibition (carrageenin edema)” value in the data set with carrageenin edema worked out at 23.2%. In the data set with SRS-A, the “SRS-A Inhibition Ratio % 10^-6 M” value is 100% and the “SRS-A Inhibition Ratio % 10^-7 M” value turned out to be 23.3%. Also, in data set [1], the inhibition in vivo at 10 mg/kg was 27.2%. Further, the “Lethal Ratio” value in the data set with male mice is on record as 0/4.

As to `Cc1c(-c2ccc(C(C)(C)C)cc2)oc2c(C(=O)O)cccc2c1=O` [Example 55, 4'-tertiary butyl-3-methylflavone-8-carboxylic acid], the “% Inhibition (carrageenin edema)” value with carrageenin edema is reported as 19.1%. Also, in the data set with SRS-A, the “SRS-A Inhibition Ratio % 10^-6 M” value amounted to 100% and the “SRS-A Inhibition Ratio % 10^-7 M” value was 21.1%. Also, in data set [1], the inhibition in vivo at 10 mg/kg amounted to 20.3%.

With `CCCCCc1ccc(-c2oc3c(C(=O)O)cccc3c(=O)c2C)cc1` [Example 58, 3-methyl-4'-n-pentylflavone-8-carboxylic acid], the “% Inhibition (carrageenin edema)” value with carrageenin edema is listed as 31.9%. Also, in the data set with SRS-A, the “SRS-A Inhibition Ratio % 10^-6 M” value is 40.0% and the “SRS-A Inhibition Ratio % 10^-7 M” value was found to be 10.3%. For the same molecule, in data set [1], the inhibition in vivo at 10 mg/kg is 28.8%. The “Lethal Ratio” value in the data set on male mice is given as 0/4.

As for `CCCCCCCCc1ccc(-c2oc3c(C(=O)O)cccc3c(=O)c2C)cc1` [Example 62, 3-methyl-4'-n-octylflavone-8-carboxylicacid], in the data set on SRS-A, the “SRS-A Inhibition Ratio % 10^-6 M” value is 83.3% and the “SRS-A Inhibition Ratio % 10^-7 M” value was 31.0%. Moreover, the inhibition in vivo at 10 mg/kg in data set [1] turned out to be 16.3%. In addition, the “Lethal Ratio” value in the data set on male mice is given as 0/4.

With `Cc1c(-c2ccc(Cl)cc2)oc2c(C(=O)OCCO)cccc2c1=O` [Example 74, beta-hydroxyethyl 4'-chloro-3-methylflavone-8-carboxylate], in the data set on SRS-A, the “SRS-A Inhibition Ratio % 10^-6 M” value is given as 52.0% and the “SRS-A Inhibition Ratio % 10^-7 M” value is listed as 18.7%. For the same molecule, the inhibition in vivo at 10 mg/kg in data set [1] was determined as 17.3%. The “Lethal Ratio” value with male mice is given as 0/4.

Regarding `CCN(CC)C(=O)c1cccc2c(=O)c(C)c(-c3ccc(Cl)cc3Cl)oc12` [Example 81, 2',4'-dichloro-3-methylflavone-8-carboxylic acid N,N-diethylamide], in the data set with SRS-A, the “SRS-A Inhibition Ratio % 10^-6 M” value amounted to 57.1% and the “SRS-A Inhibition Ratio % 10^-7 M” value was determined as 9.8%. In addition, in data set [1], the inhibition in vivo at 10 mg/kg is 20.4%.

Take `O=C(O)c1cc(=O)c2c(OCC(O)COc3cccc4oc(C(=O)O)cc(=O)c34)cccc2o1` [sodium cromoglicate]: in the data set on allergic asthma (in vivo), the “duration of action” value is “its action is of short duration”. In the data set with allergic asthma (oral), the “pharmaceutical effect by oral administration” value is reported as “does not show any pharmaceutical effect by oral administration”. Also, in the data set on allergic asthma (reported by Cox, et al.), the “effect in allergic asthma” value is listed as “effective for allergic asthma”. Further, the “inhibition of emission of chemical mediators” value in the data set on mast cells is recorded as “inhibits emission of chemical mediators from mast cells”.
